The source of these data is ChEMBL document CHEMBL1139799, “Identification of novel chemical inhibitors for ubiquitin C-terminal hydrolase-L3 by virtual screening” (Bioorg Med Chem, 2007).

What is called pIC50 is −log10 of the IC50, conventionally taken in molar units.

The target of assay [1] is T1, Ubiquitin carboxyl-terminal hydrolase isozyme L3 (Homo sapiens) (UniProt P15374).
T1 sequence (whole entry): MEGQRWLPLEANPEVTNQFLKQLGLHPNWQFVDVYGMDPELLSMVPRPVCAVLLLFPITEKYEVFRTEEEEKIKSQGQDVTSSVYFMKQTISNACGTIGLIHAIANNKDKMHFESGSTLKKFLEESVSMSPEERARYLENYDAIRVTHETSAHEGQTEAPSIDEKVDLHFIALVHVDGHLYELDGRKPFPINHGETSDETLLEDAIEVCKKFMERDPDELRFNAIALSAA
Briefly: Inhibition of human UCH-L3 hydrolysis activity at 334 uM.

Assay [2] deals with T2, Ubiquitin carboxyl-terminal hydrolase isozyme L3 (Homo sapiens, UniProt P15374).
T2 sequence (P15374 whole entry): T1 sequence (whole entry)
Briefly: Inhibition of human UCH-L3 hydrolysis activity.

The target in assay [3] is T1, Ubiquitin carboxyl-terminal hydrolase isozyme L3 (Homo sapiens). Put plainly: Inhibition of human UCH-L3 hydrolysis activity at 375 uM relative to control. Further details: scale not given: the % may be the effect or the level left.
The target is the same in assay [4]. Briefly: Inhibition of human UCH-L3 hydrolysis activity at 380 uM relative to control. Details: scale not given: the % may be the effect or the level left.
Assay [5] has the same target. Put plainly: Inhibition of human UCH-L3 hydrolysis activity at 386 uM.
The target is the same in assay [6]. Briefly: Inhibition of human UCH-L3 hydrolysis activity at 331 uM.
For assay [7] the target is unchanged. Briefly: Inhibition of human UCH-L3 hydrolysis activity at 387 uM.
For assay [8] the target is unchanged. Briefly: Inhibition of human UCH-L3 hydrolysis activity at 350 uM relative to control. Details: scale not given: the % may be the effect or the level left.

pIC50: −log10 of the molar value. Activity calls are given as the source filed them. The calls are words filed in the database; no cut-off is given here.

For `COc1ccc(N(CC(=O)NC2CC2)S(=O)(=O)c2ccc(C)cc2)cc1`, the result in assay [1] was inactive.

In assay [2], `COc1ccc(C2C(C(=O)c3cccs3)=C(O)C(=O)N2c2nncs2)cc1` (stereo not given) gave a pIC50 of 3.81. The same molecule came in with an Activity in assay [3] of 76.5%.

Turning to `Cn1c(SCc2nc(-c3cccs3)no2)nnc1-c1c[nH]c2ccccc12`, the Activity in assay [4] came out at 16.2%.

With `Cc1ccc(C(=O)C2=C(O)C(=O)N(Cc3ccccc3)C2c2cccnc2)o1` (stereo not given), the negative logarithm of the IC50 (pIC50) in assay [2] was 3.99.

`COc1cccc(N(CC(=O)NC2CCCC2)S(=O)(=O)c2ccccc2)c1`: in assay [5], the result was inactive.

Regarding `CCS(=O)(=O)Nc1cccc(C2=NN(C(C)=O)C(c3cccs3)C2)c1` (stereo not given), the outcome in assay [6] was inactive.

Take `Nc1nc(CSc2nnc(-c3ccco3)n2-c2ccccc2)cs1`: the outcome in assay [7] was inactive.

With `Cc1ccc(C(=O)C2=C(O)C(=O)N(Cc3cccnc3)C2c2ccc(F)cc2)o1` (stereo not given), the negative-log IC50 (pIC50) in assay [2] was 3.91. Also, the Activity in assay [8] amounted to 76.8%.
